Common to all, as to assay type: biochemical
One experiment addresses T1, B-Raf V600E (Homo sapiens, UniProt P15056, V600E).
T1 construct: P4254. pFastBacBD-CDC37 BRAF D437-K722-X, V600E; His6 with pFastBac HT leader (TEV site) (N); made in house; host or cells: Sf9 (baculovirus; chaperone CDC37 co-expressed)
The experiment in a line: AlphaScreen kinase assay, B-Raf V600E. The following applies: read-out: IC50, activity toward kinase B-Raf V600E. (In general: Bead proximity is the source of the signal in Alpha formats.)

Another experiment concerns the target T2, B-Raf (Homo sapiens, UniProt P15056).
T2 construct: purchased Upstate Biotechnology
The experiment in a line: AlphaScreen kinase assay, B-Raf. The following applies: read-out: IC50, activity toward kinase B-Raf.

In another experiment the target is T3, Fms (Homo sapiens, UniProt P07333).
T3 construct: purchased Upstate Biotechnology
The experiment in a line: AlphaScreen kinase assay, Fms. The following applies: read-out: IC50, activity toward kinase Fms.

The next experiment deals with T4, FGFR1 (Homo sapiens, UniProt P11362, C488A/C584S).
T4 construct: P1351.pET N6 BI-PTP FGFR A458-E765-X C488A, C584S; made in house; host or cells: E. coli (PTP1B co-expressed)
Nature of the experiment: AlphaScreen kinase assay, FGFR1. The following applies: read-out: IC50, activity toward kinase FGFR.

A further experiment concerns the target T5, Kit (Homo sapiens, UniProt P10721).
T5 construct: P1332.N6 BI PTP KIT M552-K948-X COD; His6 (N); made in house; host or cells: E. coli (PTP1B co-expressed)
The experiment in a line: AlphaScreen kinase assay, Kit. The following applies: read-out: IC50, activity toward kinase Kit.

Results on 37 compounds are retold here after US8415469B2, “Compounds and methods for kinase modulation, and indications therefor” (Plexxikon Inc., priority 2005, dated 2013).

T5 sequence (P10721 with tags, fused parts or gaps): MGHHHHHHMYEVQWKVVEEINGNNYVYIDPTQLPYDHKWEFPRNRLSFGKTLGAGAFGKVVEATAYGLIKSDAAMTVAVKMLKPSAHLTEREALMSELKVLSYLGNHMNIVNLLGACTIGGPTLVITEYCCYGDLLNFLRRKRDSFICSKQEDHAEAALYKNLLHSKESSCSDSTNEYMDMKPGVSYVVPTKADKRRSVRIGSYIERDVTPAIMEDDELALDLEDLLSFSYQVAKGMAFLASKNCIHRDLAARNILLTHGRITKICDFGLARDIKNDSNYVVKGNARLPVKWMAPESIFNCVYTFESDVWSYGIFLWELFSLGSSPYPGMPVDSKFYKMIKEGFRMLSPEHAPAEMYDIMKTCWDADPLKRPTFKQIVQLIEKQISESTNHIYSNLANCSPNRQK
T3 sequence (P07333 20-972): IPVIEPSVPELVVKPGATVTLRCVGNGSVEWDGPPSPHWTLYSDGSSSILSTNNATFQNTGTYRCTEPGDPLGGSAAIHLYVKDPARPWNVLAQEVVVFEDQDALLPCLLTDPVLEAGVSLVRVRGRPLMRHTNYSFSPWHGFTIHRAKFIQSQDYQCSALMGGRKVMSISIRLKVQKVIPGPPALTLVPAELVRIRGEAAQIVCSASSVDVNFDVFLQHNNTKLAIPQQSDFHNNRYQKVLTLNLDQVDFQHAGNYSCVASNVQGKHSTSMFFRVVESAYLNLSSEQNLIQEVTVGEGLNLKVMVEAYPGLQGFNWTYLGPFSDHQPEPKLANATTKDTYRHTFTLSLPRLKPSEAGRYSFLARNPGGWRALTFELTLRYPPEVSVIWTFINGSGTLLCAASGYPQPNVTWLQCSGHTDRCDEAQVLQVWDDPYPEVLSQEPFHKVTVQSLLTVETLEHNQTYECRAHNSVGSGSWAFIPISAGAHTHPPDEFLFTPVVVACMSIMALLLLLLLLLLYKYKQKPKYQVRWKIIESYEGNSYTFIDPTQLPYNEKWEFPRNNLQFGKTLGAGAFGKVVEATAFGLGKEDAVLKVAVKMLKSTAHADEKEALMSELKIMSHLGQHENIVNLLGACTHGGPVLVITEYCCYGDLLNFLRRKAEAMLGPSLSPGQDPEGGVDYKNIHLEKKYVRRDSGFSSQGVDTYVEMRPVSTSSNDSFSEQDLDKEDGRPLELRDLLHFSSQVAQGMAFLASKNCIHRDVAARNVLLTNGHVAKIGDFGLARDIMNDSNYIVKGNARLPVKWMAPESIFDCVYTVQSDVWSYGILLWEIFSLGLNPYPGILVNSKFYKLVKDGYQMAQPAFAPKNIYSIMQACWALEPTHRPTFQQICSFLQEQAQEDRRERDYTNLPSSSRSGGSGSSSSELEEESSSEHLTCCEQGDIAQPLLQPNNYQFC
T2 sequence (P15056 whole entry): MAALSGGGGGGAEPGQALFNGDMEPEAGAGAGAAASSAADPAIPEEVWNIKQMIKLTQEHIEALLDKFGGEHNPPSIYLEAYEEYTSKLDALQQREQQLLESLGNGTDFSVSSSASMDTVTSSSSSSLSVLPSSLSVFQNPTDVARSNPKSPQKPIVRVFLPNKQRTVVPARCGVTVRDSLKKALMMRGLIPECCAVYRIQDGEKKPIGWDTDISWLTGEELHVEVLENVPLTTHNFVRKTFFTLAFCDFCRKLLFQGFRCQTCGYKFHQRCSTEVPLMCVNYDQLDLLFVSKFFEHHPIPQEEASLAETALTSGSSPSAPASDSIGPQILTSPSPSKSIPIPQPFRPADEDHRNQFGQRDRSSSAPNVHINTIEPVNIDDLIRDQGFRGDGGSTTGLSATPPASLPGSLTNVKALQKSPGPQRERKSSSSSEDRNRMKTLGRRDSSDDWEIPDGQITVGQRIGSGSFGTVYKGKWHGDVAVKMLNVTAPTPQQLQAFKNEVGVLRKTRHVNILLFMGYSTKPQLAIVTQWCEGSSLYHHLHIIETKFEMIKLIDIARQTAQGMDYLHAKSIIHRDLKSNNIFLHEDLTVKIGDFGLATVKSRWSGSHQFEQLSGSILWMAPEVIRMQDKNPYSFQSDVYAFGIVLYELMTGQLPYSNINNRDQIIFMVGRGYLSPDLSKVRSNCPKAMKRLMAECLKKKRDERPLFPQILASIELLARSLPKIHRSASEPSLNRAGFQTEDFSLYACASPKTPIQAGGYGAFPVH
T4 sequence (P11362 458-765 C488A/C584S): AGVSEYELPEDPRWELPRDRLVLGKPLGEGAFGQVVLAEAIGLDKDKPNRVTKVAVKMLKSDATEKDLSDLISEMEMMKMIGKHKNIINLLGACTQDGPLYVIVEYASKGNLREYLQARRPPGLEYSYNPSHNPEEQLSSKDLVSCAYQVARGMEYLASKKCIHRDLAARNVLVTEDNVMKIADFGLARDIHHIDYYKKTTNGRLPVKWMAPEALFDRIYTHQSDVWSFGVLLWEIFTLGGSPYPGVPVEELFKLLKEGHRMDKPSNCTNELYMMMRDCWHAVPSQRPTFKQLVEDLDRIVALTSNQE
T1 sequence (P15056 with tags, fused parts or gaps V600E): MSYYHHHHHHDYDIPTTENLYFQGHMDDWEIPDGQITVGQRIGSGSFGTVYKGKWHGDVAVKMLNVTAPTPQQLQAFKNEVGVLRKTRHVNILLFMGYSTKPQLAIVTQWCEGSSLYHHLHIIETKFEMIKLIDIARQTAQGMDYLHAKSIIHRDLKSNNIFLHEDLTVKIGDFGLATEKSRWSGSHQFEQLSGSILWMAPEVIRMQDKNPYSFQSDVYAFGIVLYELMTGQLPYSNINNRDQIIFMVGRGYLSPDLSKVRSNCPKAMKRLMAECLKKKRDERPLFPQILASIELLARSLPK

For orientation: IC50 means the point on the concentration scale where inhibition reaches its midpoint. Regarding `c1ccc(CCc2c[nH]c3ncccc23)cc1` [Compound P-0200], the IC50 on B-Raf V600E and on B-Raf was at most 10 µM in each case.
`Clc1ccc(Cc2c[nH]c3ncccc23)cc1` [Compound P-0233]: the IC50 on Fms, at FGFR1 and on Kit was at most 10 µM throughout.
In the case of `CC(C)(C)OC(=O)N(Cc1ccc(Cl)cc1)c1ccc(C(O)c2c[nH]c3ncc(-c4cccnc4)cc23)cn1` (stereo not shown) [Compound P-0414], the IC50 at B-Raf V600E and at B-Raf was at most 10 µM each time.
With `Clc1ccc(CNc2ccc(Cc3c[nH]c4ncc(Br)cc34)cn2)cc1` [Compound P-0420], the IC50 at B-Raf V600E, on Fms and on FGFR1 was at most 10 µM each time.
Consider `COc1ccc(Cc2c[nH]c3ncc(-c4ccsc4)cc23)cc1OC` [Compound P-0563], for which the IC50 on Fms, on FGFR1 and on Kit was at most 10 µM throughout.
On to `CSc1nccc(-c2ccc(S(=O)(=O)NCc3c[nH]c4ncccc34)s2)n1` [Compound P-0854], for which the half-maximal inhibitory concentration (IC50) on Fms, on FGFR1 and on Kit was at most 10 µM in each case.
Consider `Cc1nc(NCc2ccc(Cl)cc2)ccc1Cc1c[nH]c2ncccc12` [Compound P-0927], for which the IC50 on B-Raf V600E, on Fms and on FGFR1 was at most 10 µM in each case.
`COC(=O)c1cccc(Nc2ccnc3[nH]ccc23)c1` [Compound P-0932]: at B-Raf, the IC50 is at most 10 µM.
Regarding `Oc1cccc(Nc2ccnc3[nH]ccc23)c1` [Compound P-0980], the IC50 at B-Raf V600E and at B-Raf was at most 10 µM throughout.
As for `OC(c1c(F)ccc(N(Cc2ccccc2)Cc2ccccc2)c1F)c1c[nH]c2ncc(-c3cccnc3)cc12` (stereo not shown) [Compound P-1080], on B-Raf, the IC50 was at most 10 µM.
`COc1cccc(Cc2c[nH]c3ncc(-c4cccc(C(F)(F)F)c4)cc23)c1F` [Compound P-1325, 3-(2-Fluoro-3-methoxy-benzyl)-5-(3-trifluoromethyl-phenyl)-1H-pyrrolo[2,3-b]pyridine]: the IC50 on Fms and at FGFR1 was at most 10 µM each time.
As for `COc1cccc(Cc2c[nH]c3ncc(-c4cccc(Cl)c4)cc23)c1F` [Compound P-1326, 5-(3-Chloro-phenyl)-3-(2-fluoro-3-methoxy-benzyl)-1H-pyrrolo[2,3-b]pyridine], the IC50 on Fms and at FGFR1 was at most 10 µM in each case.
In the case of `COc1cccc(Cc2c[nH]c3ncc(-c4cccc(F)c4)cc23)c1F` [Compound P-1327, 3-(2-Fluoro-3-methoxy-benzyl)-5-(3-fluoro-phenyl)-1H-pyrrolo[2,3-b]pyridine], the IC50 at Fms and on FGFR1 was at most 10 µM each time.
Take `COc1cccc(Cc2c[nH]c3ncc(-c4cccc(OC(F)(F)F)c4)cc23)c1F` [Compound P-1328, 3-(2-Fluoro-3-methoxy-benzyl)-5-(3-trifluoromethoxy-phenyl)-1H-pyrrolo[2,3-b]pyridine]: the IC50 at Fms and on FGFR1 was at most 10 µM throughout.
As for `COc1cccc(C(=O)c2c[nH]c3ncc(-c4cccc(Cl)c4)cc23)c1F` [Compound P-1332, [5-(3-Chloro-phenyl)-1H-pyrrolo[2,3-b]pyridin-3-yl]-(2-fluoro-3-methoxy-phenyl)-methanone], the half-maximal inhibitory concentration (IC50) at Fms and at FGFR1 was at most 10 µM each time.
Consider `COc1cccc(C(=O)c2c[nH]c3ncc(-c4ccc(Cl)cc4)cc23)c1F` [Compound P-1333, [5-(4-Chloro-phenyl)-1H-pyrrolo[2,3-b]pyridin-3-yl]-(2-fluoro-3-methoxy-phenyl)-methanone], for which the IC50 at Fms and at FGFR1 was at most 10 µM throughout.
With `COc1cccc(C(=O)c2c[nH]c3ncc(-c4cc(F)cc(F)c4)cc23)c1F` [Compound P-1334, [5-(3,5-Difluoro-phenyl)-1H-pyrrolo[2,3-b]pyridin-3-yl]-(2-fluoro-3-methoxy-phenyl)-methanone], the IC50 on Fms and on FGFR1 was at most 10 µM in each case.
With `COc1cccc(C(=O)c2c[nH]c3ncc(-c4ccc(C#N)cc4)cc23)c1F` [Compound P-1335, 4-[3-(2-Fluoro-3-methoxy-benzoyl)-1H-pyrrolo[2,3-b]pyridin-5-yl]-benzonitrile], the IC50 at Fms and on FGFR1 was at most 10 µM in each case.
On to `COc1cc(C(OC)c2c[nH]c3ncccc23)ccc1OCc1ccc(Cl)cc1` (stereo not shown) [Compound P-1340], for which the IC50 on Fms and at FGFR1 was at most 10 µM each time.
Turning to `Fc1ccccc1Cc1c[nH]c2ncc(Br)cc12` [Compound P-1342], the 50% inhibitory concentration (IC50) at Fms and at FGFR1 was at most 10 µM each time.
As to `COc1cccc(C(=O)c2c[nH]c3ncc(-c4cccc(OC(F)(F)F)c4)cc23)c1F` [Compound P-1344, (2-Fluoro-3-methoxy-phenyl)-[5-(3-trifluoromethoxy-phenyl)-1H-pyrrolo[2,3-b]pyridin-3-yl]-methanone], the IC50 at Fms and on FGFR1 was at most 10 µM throughout.
As to `CCCC(=O)Nc1ccc(F)c(Cc2c[nH]c3ncc(OC)cc23)c1F` [Compound P-1369], the IC50 at B-Raf V600E, at Fms, on FGFR1 and on Kit was at most 10 µM each time.
With `O=C(c1cccc(OC(F)F)c1)c1c[nH]c2ncc(-c3ccccc3)cc12` [Compound P-1409, (3-Difluoromethoxy-phenyl)-(5-phenyl-1H-pyrrolo[2,3-b]pyridin-3-yl)-methanone], the IC50 on B-Raf V600E, at Fms, at FGFR1 and on Kit was at most 10 µM throughout.
With `O=C(c1cccc(C(F)(F)F)c1)c1c[nH]c2ncc(-c3cccnc3)cc12` [Compound P-1410, (5-Pyridin-3-yl-1H-pyrrolo[2,3-b]pyridin-3-yl)-(3-trifluoromethyl-phenyl)-methanone], the IC50 on Fms and on Kit was at most 10 µM in each case.
`CCCS(=O)(=O)Nc1ccc(F)c(C(=O)c2c[nH]c3ncc(Br)cc23)c1` [Compound P-1431]: the IC50 at B-Raf is at most 10 µM.
In the case of `Clc1cccc(Cl)c1Cc1c[nH]c2ncccc12` [Compound P-1483, 3-(2,6-Dichloro-benzyl)-1H-pyrrolo[2,3-b]pyridine], the IC50 at Fms and at Kit was at most 10 µM each time.
As for `COc1ccc(Nc2c[nH]c3ncccc23)cc1` [Compound P-1488, (4-Methoxy-phenyl)-(1H-pyrrolo[2,3-b]pyridin-3-yl)-amine], the IC50 on Fms and on Kit was at most 10 µM in each case.
On to `FC(F)(F)Oc1cccc(Nc2c[nH]c3ncccc23)c1` [Compound P-1493, (1H-Pyrrolo[2,3-b]pyridin-3-yl)-(3-trifluoromethoxy-phenyl)-amine], for which the IC50 on Fms and on Kit was at most 10 µM in each case.
Turning to `CS(=O)(=O)Nc1cccc(Nc2c[nH]c3ncccc23)c1` [Compound P-1498, N-[3-(1H-Pyrrolo[2,3-b]pyridin-3-ylamino)-phenyl]-methanesulfonamide], the IC50 at Fms and at Kit was at most 10 µM in each case.
For `c1ccc(Oc2ccccc2Nc2c[nH]c3ncccc23)cc1` [Compound P-1501, (2-Phenoxy-phenyl)-(1H-pyrrolo[2,3-b]pyridin-3-yl)-amine], the IC50 at Fms and on Kit was at most 10 µM each time.
Consider `COc1cc(Nc2c[nH]c3ncccc23)cc(OC)c1` [Compound P-1503, (3,5-Dimethoxy-phenyl)-(1H-pyrrolo[2,3-b]pyridin-3-yl)-amine], for which the IC50 at Fms and on Kit was at most 10 µM in each case.
On to `CS(=O)(=O)Nc1cccc(-c2cnc3[nH]cc(C(=O)c4cc(OC(F)F)cc(OC(F)F)c4)c3c2)c1` [Compound P-1522, N-{3-[3-(3,5-Bis-difluoromethoxy-benzoyl)-1H-pyrrolo[2,3-b]pyridin-5-yl]-phenyl}-methanesulfonamide], for which the IC50 at Fms, on FGFR1 and at Kit was at most 10 µM each time.
In the case of `OC(c1c(F)ccc(OC(F)F)c1F)c1c[nH]c2ncc(Br)cc12` (stereo not shown) [Compound P-1525], the IC50 at Fms, at FGFR1 and at Kit was at most 10 µM in each case.
Regarding `O=C(c1ccc2c(c1)OC(F)(F)O2)c1c[nH]c2ncc(-c3cccnc3)cc12` [Compound P-1558, (2,2-Difluoro-benzo[1,3]dioxol-5-yl)-(5-pyridin-3-yl-1H-pyrrolo[2,3-b]pyridin-3-yl)-methanone], the IC50 on B-Raf V600E and on Fms was at most 10 µM in each case.
Regarding `O=C(Nc1ccc(F)cc1)Nc1ccc(F)c(Cc2c[nH]c3ncc(Cl)cc23)c1F` [Compound P-1657, 1-[3-(5-Chloro-1H-pyrrolo[2,3-b]pyridin-3-ylmethyl)-2,4-difluoro-phenyl]-3-(4-fluoro-phenyl)-urea], the IC50 at Fms was at most 10 µM.
On the same count and under the same terms, for `CCCCOc1ccc(NC(=O)Nc2cccc(C(=O)c3c[nH]c4ncc(-c5ccc(F)cc5)cc34)c2)cc1` [Compound P-1754, 1-(4-Butoxy-phenyl)-3-{3-[5-(4-fluoro-phenyl)-1H-pyrrolo[2,3-b]pyridine-3-carbonyl]-phenyl}-urea] the value was at most 10 µM; for `COCCNC(=O)Nc1cccc(C(=O)c2c[nH]c3ncccc23)c1` [Compound P-1761, 1-(2-Methoxy-ethyl)-3-[3-(1H-pyrrolo[2,3-b]pyridine-3-carbonyl)-phenyl]urea], at most 10 µM.
